Reference: patent US20250333424A1, “ANTIVIRAL COMPOUNDS” (Gilead Sciences, Inc., priority 2024, published 2025)

Tested on: monocytic THP1 cells infected with HIV VSV-G pseudotyped GFP-NEF reporter virus
Test: cells
Format: cell-based
Details: Human immunodeficiency virus 1, THP-1, 24 h

Going from `Cc1cc(/C=C/C#N)cc(C)c1Oc1nc(NC23CC(C#N)(C2)C3)nc2c1C(C)(C)N(c1cnn(C)c1)C2=O` [Example 230, (E)-3-((4-(4-(2-cyanovinyl)-2,6-dimethylphenoxy)-5,5-dimethyl-6-(1-methyl-1H-pyrazol-4-yl)-7-oxo-6,7-dihydro-5H-pyrrolo[3,4-d]pyrimidin-2-yl)amino)bicyclo[1.1.1]pentane-1-carbonitrile] to `CCn1cc(N2C(=O)c3nc(NC45CC(C#N)(C4)C5)nc(Oc4c(C)cc(/C=C/C#N)cc4C)c3C2C)cn1` (centres unmarked) [Example 218, (E)-3-((4-(4-(2-cyanovinyl)-2,6-dimethylphenoxy)-6-(1-ethyl-1H-pyrazol-4-yl)-5-methyl-7-oxo-6,7-dihydro-5H-pyrrolo[3,4-d]pyrimidin-2-yl)amino)bicyclo[1.1.1]pentane-1-carbonitrile], the EC50 falls from 116 nM to 47.3 nM (2.5-fold). The second is the more potent here.

First: CCOC1NC(=O)c2nc(NC34CC(C#N)(C3)C4)nc(Oc3c(C)cc(/C=C/C#N)cc3C)c21 (centres unmarked) [Compound 288, (E)-3-((4-(4-(2-cyanovinyl)-2,6-dimethylphenoxy)-5-ethoxy-7-oxo-6,7-dihydro-5H-pyrrolo[3,4-d]pyrimidin-2-yl)amino)bicyclo[1.1.1]pentane-1-carbonitrile]
Second: Cc1cc(/C=C/C#N)cc(C)c1Oc1nc(NC23CC(C#N)(C2)C3)nc2c1C(C)N(CC1CC1)C2=O (centres unmarked) [Example 210, (E)-3-((4-(4-(2-cyanovinyl)-2,6-dimethylphenoxy)-6-(cyclopropylmethyl)-5-methyl-7-oxo-6,7-dihydro-5H-pyrrolo[3,4-d]pyrimidin-2-yl)amino)bicyclo[1.1.1]pentane-1-carbonitrile]
The EC50 of the first is 4.2-fold lower: 29.8 nM for the first, 125 nM for the second. The first is the more potent here.

Going from `C=C1NC(=O)c2nc(NC34CC(C#N)(C3)C4)nc(Oc3c(C)cc(/C=C/C#N)cc3C)c21` [Compound 139, (E)-3-((4-(4-(2-cyanovinyl)-2,6-dimethylphenoxy)-5-methylene-7-oxo-6,7-dihydro-5H-pyrrolo[3,4-d]pyrimidin-2-yl)amino)bicyclo[1.1.1]pentane-1-carbonitrile] to `Cc1cc(/C=C/C#N)cc(C)c1Oc1nc(NC23CC(C#N)(C2)C3)nc2[nH]cc(C)c12` [Compound 302, (E)-3-((4-(4-(2-cyanovinyl)-2,6-dimethylphenoxy)-5-methyl-7H-pyrrolo[2,3-d]pyrimidin-2-yl)amino)bicyclo[1.1.1]pentane-1-carbonitrile], the EC50 rises from 8.27 nM to 211 nM (26-fold). The first is the more potent here.

Compared with `Cc1cc(/C=C/C#N)cc(C)c1Oc1nc(NC23CC(C#N)(C2)C3)nc2c1C(C)N(C1CCOCC1)C2=O` (centres unmarked) [Example 215, (E)-3-((4-(4-(2-cyanovinyl)-2,6-dimethylphenoxy)-5-methyl-7-oxo-6-(tetrahydro-2H-pyran-4-yl)-6,7-dihydro-5H-pyrrolo[3,4-d]pyrimidin-2-yl)amino)bicyclo[1.1.1]pentane-1-carbonitrile], `Cc1cc(/C=C/C#N)cc(C)c1Oc1nc(NC23CC(C#N)(C2)C3)nc2c1[C@@H](C)N(CC(F)F)C2=O` [Example 239, (R,E)-3-((4-(4-(2-cyanovinyl)-2,6-dimethylphenoxy)-6-(2,2-difluoroethyl)-5-methyl-7-oxo-6,7-dihydro-5H-pyrrolo[3,4-d]pyrimidin-2-yl)amino)bicyclo[1.1.1]pentane-1-carbonitrile] is 5.9-fold lower in EC50: 109 nM for the first, 18.5 nM for the second.

First: Cc1cc(/C=C/C#N)cc(C)c1Oc1nc(NC23CC(C#N)(C2)C3)nc2c1c(C)nn2CCC(F)F [Compound 103, (E)-3-((4-(4-(2-cyanovinyl)-2,6-dimethylphenoxy)-1-(3,3-difluoropropyl)-3-methyl-1H-pyrazolo[3,4-d]pyrimidin-6-yl)amino)bicyclo[1.1.1]pentane-1-carbonitrile]
Second: Cc1cc(/C=C/C#N)cc(C)c1Oc1nc(NC23CC(C#N)(C2)C3)nc2nn(C)c(C(F)F)c12 [Compound 92, (E)-3-((4-(4-(2-cyanovinyl)-2,6-dimethylphenoxy)-3-(difluoromethyl)-2-methyl-2H-pyrazolo[3,4-d]pyrimidin-6-yl)amino)bicyclo[1.1.1]pentane-1-carbonitrile]
The EC50 of the first is 8.4-fold higher: 221 nM for the first, 26.3 nM for the second. The second is the more potent here.

Compared with `Cc1cc(/C=C/C#N)cc(C)c1Oc1nc(NC23CC(C#N)(C2)C3)nc2[nH]nc(C3CC3)c12` [Compound 104, (E)-3-((4-(4-(2-cyanovinyl)-2,6-dimethylphenoxy)-3-cyclopropyl-1H-pyrazolo[3,4-d]pyrimidin-6-yl)amino)bicyclo[1.1.1]pentane-1-carbonitrile], `Cc1cc(/C=C/C#N)cc(C)c1Oc1nc(NC23CC(C#N)(C2)C3)nc2nc3n(c12)C[C@@H](C)CO3` [Compound 186, (R,E)-3-((4-(4-(2-cyanovinyl)-2,6-dimethylphenoxy)-7-methyl-7,8-dihydro-6H-[1,3]oxazino[2,3-f]purin-2-yl)amino)bicyclo[1.1.1]pentane-1-carbonitrile] is 1.5-fold lower in EC50: 141 nM for the first, 92 nM for the second. The second is the more potent here.

Compared with `Cc1cc(/C=C/C#N)cc(C)c1Oc1nc(NC23CC(C#N)(C2)C3)nc2c1C1(C)O[C@H](C)CN1C2=O` (single isomer, unassigned) [Example 251], `Cc1cc(/C=C/C#N)cc(C)c1Oc1nc(NC23CC(C#N)(C2)C3)nc2c1C1(C)OCCCN1C2=O` (centres unmarked) [Compound 314, (E)-3-((4-(4-(2-cyanovinyl)-2,6-dimethylphenoxy)-4b-methyl-10-oxo-4b,7,8,10-tetrahydro-6H-pyrimido[5′,4′:3,4]pyrrolo[2,1-b][1,3]oxazin-2-yl)amino)bicyclo[1.1.1]pentane-1-carbonitrile] is 2.9-fold lower in EC50: 73.2 nM for the first, 25.3 nM for the second.

First: Cc1cc(/C=C/C#N)cc(C)c1Oc1nc(NC23CC(C#N)(C2)C3)nc2cn(C(C)C)nc12 [Compound 108]
Second: Cc1cc(/C=C/C#N)cc(C)c1Oc1nc(NC23CC(C#N)(C2)C3)nc2ncn(C(F)F)c12 [Compound 12, (E)-3-((6-(4-(2-cyanovinyl)-2,6-dimethylphenoxy)-7-(difluoromethyl)-7H-purin-2-yl)amino)bicyclo[1.1.1]pentane-1-carbonitrile]
The EC50 of the first is 110-fold higher: 611 nM for the first, 5.68 nM for the second. The second is the more potent here.

`Cc1cc(/C=C/C#N)cc(C)c1Oc1nc(NC23CC(C#N)(C2)C3)nc2nc3n(c12)CCC3` [Compound 196, (E)-3-((4-(4-(2-cyanovinyl)-2,6-dimethylphenoxy)-7,8-dihydro-6H-pyrrolo[2,1-f]purin-2-yl)amino)bicyclo[1.1.1]pentane-1-carbonitrile] and `Cc1cc(/C=C/C#N)cc(C)c1Oc1nc(NC23CC(C#N)(C2)C3)nc2nc(C)n(CC(F)F)c12` (single isomer, unassigned) [Compound 20, (E)-3-((6-(4-(2-cyanovinyl)-2,6-dimethylphenoxy)-7-(2,2-difluoroethyl)-8-methyl-7H-purin-2-yl)amino)bicyclo[1.1.1]pentane-1-carbonitrile] are within 1.5-fold of each other in EC50: 24.6 nM for the first, 25.5 nM for the second.

`CCc1cc(/C=C/C#N)cc(Cl)c1Oc1nc(NC23CC(C#N)(C2)C3)nc2nn(C)cc12` [Compound 7, (E)-3-((4-(2-chloro-4-(2-cyanovinyl)-6-ethylphenoxy)-2-methyl-2H-pyrazolo[3,4-d]pyrimidin-6-yl)amino)bicyclo[1.1.1]pentane-1-carbonitrile] and `Cc1cc(/C=C/C#N)cc(C)c1Oc1nc(NC23CC(C#N)(C2)C3)nc2nc(C(F)F)n(C(F)F)c12` [Compound 178, (E)-3-((6-(4-(2-cyanovinyl)-2,6-dimethylphenoxy)-7,8-bis(difluoromethyl)-7H-purin-2-yl)amino)bicyclo[1.1.1]pentane-1-carbonitrile] are within 1.5-fold of each other in EC50: 21.4 nM for the first, 25.7 nM for the second.
